Like-named read-outs stand apart in the source and are kept apart here.
Key:
M. incognita J2 larvae = experiment: Meloidogyne incognita in vitro larval mobility assay; assay type: in vivo; conditions: for Replicate 1 z-score / Replicate 2 z-score: z-score vs untreated DMSO wells; for pest or weed control at 45 µM: Meloidogyne incognita, 96 h
Procedure: M. incognita (Kofoid & White) Chitwood Race 1 (originally isolated in Maryland) was used for all experiments, and was maintained on pepper (Capsicum annuum L.) cv. PA-136 in a greenhouse as previously described^44. Infective J2 juveniles were collected as described in ref. 45. The microwell dose-response experiments were carried out similarly to previously described protocols^44,46. In brief, 50 μL of deionized water was added to the wells of 96-well polystyrene plates and 0.5 μL of test compound (or DMSO alone) was added to each well. Approximately 35 J2s were then added to each well in 49.5 μL of deionized water. The chemicals were tested at 45 μM, and the final concentration of DMSO in each well was 0.5% (v/v). DMSO alone was added to 3 separate wells. The plates were covered with plastic adhesive strips, and the lids of the plates were sealed with parafilm. The plates were incubated at 25° C. without shaking for 4 days. The percent of worms that were immobile (% immobile) was quantified by counting the number of immobile worms after 4 days of incubation, dividing the number of immobile worms by the total number of worms in the well, and then multiplying by 100. Two replicates were performed for each treatment. The z-score for each treatment was calculated using the mean and standard deviation of the untreated DMSO control wells. The average % immobile value was calculated across the two replicates. A test compound was considered most promising if the z-score was greater than 1.645 in both replicates.

M. hapla eggs = experiment: Meloidogyne hapla in vitro egg hatch assay; assay type: in vivo; conditions: 45 μM; for Number of Hatched Eggs: 8 days at room temperature, about 90 eggs per well, tested once; for Number of Hatched Eggs z-score: 8 days, z-score vs 8 untreated DMSO wells
Procedure: The M. hapla were originally obtained from a soil sample of muck soil from Ste-Clotilde, Quebec, Canada. Using tweezers, egg masses were carefully removed from root material from infested carrot roots. Eggs were liberated from the egg masses using a mild sodium hypochlorite bleaching protocol, whereby egg masses were bleached with a 10% commercial bleach (sodium hypochlorite) solution for 4 minutes with vigorous shaking, and then washed 5 times with deionized water. 50 μL of deionized water was added to each well of two 96-well polystyrene culture plates, and 0.5 μL of chemical (or DMSO alone) was added to each well. Approximately 90 eggs were added to each well in 49.5 ul of deionized water. The plates were sealed with parafilm and incubated for 8 days at room temperature without shaking in a Tupperware box filled with wet paper towels. After the 8-day incubation, the number of hatched eggs was counted for each treatment and for the untreated controls. Each chemical treatment was tested only once. 8 separate untreated DMSO controls were included in the experiment. The z-score for each treatment was calculated using the mean and standard deviation of the untreated DMSO control wells.

[1] = 45 μM, 4 days, average of the two replicates, read-out: Average % Immobile
[2] = 45 μM, 4 days, replicate 1, read-out: Replicate 1 % Immobile
[3] = 45 μM, 4 days, replicate 2, read-out: Replicate 2 % Immobile

| Compound | Replicate 1 z-score (M. incognita J2 larvae; 45 μM, 4 days, replicate 1) | Replicate 2 z-score (M. incognita J2 larvae; 45 μM, 4 days, replicate 2) | Number of Hatched Eggs (M. hapla eggs) | Number of Hatched Eggs z-score (M. hapla eggs) | pest or weed control at 45 µM (M. incognita J2 larvae; [1]) [%] | pest or weed control at 45 µM (M. incognita J2 larvae; [2]) [%] | pest or weed control at 45 µM (M. incognita J2 larvae; [3]) [%] | other results |
| --- | --- | --- | --- | --- | --- | --- | --- | --- |
| CNC(=O)O/N=C(\SC)C(=O)N(C)C [Oxamyl, oxamyl, reference compound] | [9.35] | [13.88] | 9 | [1.65] | – | – | – | pest or weed control at 45 µM (M. incognita J2 larvae; read-out: Average % Immobile): 66.9%; pest or weed control at 45 µM (M. incognita J2 larvae; read-out: Replicate 1 % Immobile): 67.2%; pest or weed control at 45 µM (M. incognita J2 larvae; read-out: Replicate 2 % Immobile): 66.7% |
| COCc1nn2cc(-c3ccc(F)cc3)nc2s1 [I-141] | [1.89] | [4.06] | – | – | 32.1 | 31.9 | 32.2 | – |
| Nc1c(-c2ccc(Br)cc2)nc2sccn12 [I-118] | – | – | 2 | [3.97] | – | – | – | – |
| CCOc1ccc(-c2cn3ccsc3n2)cc1 [I-153] | – | – | 2 | [3.97] | – | – | – | – |
| CCOc1ccc(-c2nc3sccn3c2C=O)cc1 [I-154] | [10.40] | [16.33] | 0 | [4.63] | ≥ 75 | 73.6 | 100 | Number of Hatched Eggs (M. hapla eggs; listed as 1-154): completely inhibited egg hatching |
| O=Cc1c(-c2ccc(F)cc2)nc2sccn12 [I-157] | [15.40] | [15.24] | – | – | – | 98 | 94 | – |
| COCc1nn2cc(-c3cccc(OC)c3)nc2s1 [I-108] | – | – | 4 | [3.31] | – | – | – | – |
| N#Cc1ccc(-c2cn3ccsc3n2)cc1 [I-87] | [6.98] | [9.68] | 3 | [3.64] | 60.1 | 56.9 | 63.3 | – |
| FC(F)(F)c1ccc(-c2cn3ccsc3n2)cc1 [I-68] | – | – | 4 | [3.31] | – | – | – | – |
| COCc1nn2cc(-c3ccc(C)c(C)c3)nc2s1 [I-109] | – | – | 4 | [3.31] | – | – | – | – |
| Brc1nn2cc(-c3ccccc3)nc2s1 [I-159] | [15.34] | [16.33] | – | – | – | 97.8 | 100 | – |
| CCc1nn2cc(-c3ccc(C)cc3C)nc2s1 [I-129] | [2.18] | [1.78] | – | – | 26.5 | 33.3 | 19.6 | – |
| COc1c(-c2cn3ccsc3n2)ccc2ccccc12 [I-81] | – | – | 3 | [3.64] | – | – | – | – |
| c1ccc2cc(-c3cn4ccsc4n3)ccc2c1 [I-101] | – | – | 2 | [3.97] | – | – | – | – |
| Cc1cn2cc(-c3ccc(OC(F)F)cc3)nc2s1 [I-54] | [1.73] | [2.15] | – | – | 26.4 | 31.1 | 21.7 | – |
| CC(C)NC(=O)N1CC(=O)N(c2cc(Cl)cc(Cl)c2)C1=O [Iprodione, iprodione, reference compound] | [−0.02] | [1.71] | 15 | [−0.33] | 13.8 | 10.9 | 16.7 | – |
| Nc1c(-c2ccccc2)nc2sccn12 [I-128] | [11.92] | [13.69] | – | – | ≥ 75 | 81 | 85.5 | – |
| Cc1cn2cc(-c3cccs3)nc2s1 [I-78] | – | – | 3 | [3.64] | – | – | – | – |
| Clc1ccc(-c2cn3ccsc3n2)s1 [I-84] | [13.56] | [16.33] | 0 | [4.63] | ≥ 75 | 89.1 | 100 | Number of Hatched Eggs (M. hapla eggs; listed as 1-84): completely inhibited egg hatching |

| Compound | Replicate 1 z-score (M. incognita J2 larvae; 45 μM, 4 days, replicate 1) | Replicate 2 z-score (M. incognita J2 larvae; 45 μM, 4 days, replicate 2) | Number of Hatched Eggs (M. hapla eggs) | Number of Hatched Eggs z-score (M. hapla eggs) | pest or weed control at 45 µM (M. incognita J2 larvae; [1]) [%] | pest or weed control at 45 µM (M. incognita J2 larvae; [2]) [%] | pest or weed control at 45 µM (M. incognita J2 larvae; [3]) [%] | other results |
| --- | --- | --- | --- | --- | --- | --- | --- | --- |
| O=C(O)c1cn2cc(-c3ccccc3)nc2s1 [I-94] | – | – | 4 | [3.31] | – | – | – | – |
| COCc1nn2cc(-c3ccc(Cl)cc3)nc2s1 [I-144] | [4.17] | [6.85] | 4 | [3.31] | 45.4 | 43.1 | 47.6 | – |
| Cc1csc2nc(-c3ccc(Cl)s3)cn12 [I-85] | – | – | 4 | [3.31] | – | – | – | – |
| O=Cc1c(-c2ccc(Cl)cc2)nc2sccn12 [I-93] | [15.80] | [12.15] | – | – | ≥ 75 | 100 | 76.9 | – |
| Fc1ccccc1-c1cn2ccsc2n1 [I-89] | [10.62] | [12.27] | 3 | [3.64] | ≥ 75 | 74.7 | 77.6 | – |
| O=Cc1c(-c2ccccc2)nc2sccn12 [I-122] | [14.96] | [12.31] | 1 | [4.30] | ≥ 75 | 95.9 | 77.8 | – |
| CCOC(=O)c1ccc(-c2cn3ccsc3n2)cc1 [I-72] | – | – | 4 | [3.31] | – | – | – | – |
| Cc1csc2nc(-c3ccc(OC(F)(F)F)cc3)cn12 [I-62] | – | – | 3 | [3.64] | – | – | – | – |
| Fc1ccc(-c2cn3nc(Br)sc3n2)cc1 [I-113] | [15.80] | [15.32] | – | – | – | 100 | 94.4 | – |
| Brc1ccc(-c2cn3c(n2)SCC3)cc1 [I-48] | [15.80] | [5.11] | 0 | [4.63] | 69 | 100 | 38 | Number of Hatched Eggs (M. hapla eggs; listed as 1-48): completely inhibited egg hatching |
| COc1ccc(-c2nc3scc(C)n3c2C=O)cc1 [I-135] | – | – | 4 | [3.31] | – | – | – | – |
| Cc1cn2cc(-c3ccc(OC(F)(F)F)cc3)nc2s1 [I-53] | [3.33] | [6.79] | – | – | 43.1 | 39 | 47.3 | – |
| Cc1csc(-c2cn3cc(C)sc3n2)c1 [I-161] | – | – | 0 | [4.63] | – | – | – | Number of Hatched Eggs (M. hapla eggs; listed as 1-161): completely inhibited egg hatching |
| Cc1sc2nc(-c3ccc(Cl)s3)cn2c1C [I-86] | – | – | 4 | [3.31] | – | – | – | – |
| Cc1ccc(-c2nc3sccn3c2C=O)cc1 [I-152] | [15.80] | [14.75] | – | – | – | 100 | 91.3 | – |
| Cc1csc2nc(-c3ccc(OC(F)F)cc3)cn12 [I-64] | – | – | 4 | [3.31] | – | – | – | – |
| Cc1cn2cc(-c3ccc(N)cc3)nc2s1 [I-132] | – | – | 3 | [3.64] | – | – | – | – |
| Cc1nn2cc(-c3ccc(Cl)cc3)nc2s1 [I-158] | [3.12] | [8.51] | – | – | 47.4 | 37.9 | 56.8 | – |
| COc1ccc(-c2cn3ccsc3n2)cc1 [I-142] | [2.76] | [1.68] | – | – | 27.6 | 36.2 | 19.1 | – |
